Data published in patent US7582681B2, “Synergistic mixtures of 1,2-alkane diols” (Symrise GmbH & Co. KG, priority 2002, dated 2009).
In brackets after ≈: the same amount, converted by molar mass.

Assays:
Type in all cases: cell-based
[1] = system: Candida albicans ATCC 10231; experiment: Test for adequate preservation (European Pharmacopea), 1,2-diols and 1,2-diol mixtures in O/W emulsion; conditions: 3% diol(s) in O/W emulsion
Method: (§1) A test for adequate preservation was carried out in accordance with the European Pharmacopea. The test thus consists of the contamination of the formulation, if possible in its final ratio, with a prescribed inoculum of suitable microorganisms, storage of the inoculated formulation at a specific temperature, taking of samples from the vessel at specific intervals and determination of the number of microorganisms in the samples taken in this way. The preserving properties are adequate if, under the conditions of the test, there is a distinct reduction or optionally no increase in the germ count in the inoculated formulations after the prescribed times at the prescribed temperatures. Experimental details of the test procedure are described in the European Pharmacopea (ISBN 3-7692-2768-9; 2001 supplement to the 3rd Edition, page 421-422, chapter 5.1.3). The initial germ count (CFU/g; “0” value) was in the range of 240,000 to 300,000 in the various test series. For the tests for adequate preservation, (a) potentially synergistically active mixtures taken into account and (b), for comparison purposes, the corresponding unmixed 1,2-diols were incorporated in O/W emulsions. […] The variation in the total concentration of 1,2-diols or 1,2-diol mixtures in the O/W emulsions was compensated for by increasing or reducing the water content, so that otherwise identical formulations always comprised 100 parts by weight in total.

[2] = system: Escherichia coli ATCC 8739; experiment: as above; conditions: 3% diol(s) in O/W emulsion
Method: as §1

[3] = system: Pseudomonas aeruginosa ATCC 9027; experiment: as above; conditions: 3% diol(s) in O/W emulsion
Method: as §1

[4] = system: Staphylococcus aureus ATCC 6538; experiment: as above; conditions: 3% diol(s) in O/W emulsion
Method: as §1

[5] = system: Epidermophyton floccosum CBS 55384; experiment: MIC, agar dilution method; conditions: CBS55384, Mueller-Hinton agar, 18 h at 36° C.
Method: (§2) Petri dishes 9.0 cm in diameter were charged with 13.5 ml freshly prepared Mueller-Hinton agar (Merck, Ref. 1.05437 or Wilkins-Chalgren agar boullion, Oxoid, Ref. CM 643, supplemented with log agar-agar/liter) kept liquid at 50° C., to which the various concentrations of the diluted samples were added in 10% (V/V)=1.5 ml. Mueller-Hinton agar that contained 3% Tween80 (Merck, Ref. 8.22 187) was used for the test germ Malassezia furfur. In each case 5 ml of the samples were diluted in distilled water and made up to 10 ml. The further test concentrations of the particular dilution series, which were prepared in the form of geometric series, were prepared by progressive 1:2 dilution of this batch with distilled water. […] Two agar plates were poured per test concentration and nutrient medium. After solidification and drying (approx. 1 h at 37° C.), the test plates were inoculated in point form with, in each case, 1 μl of the test germ suspensions listed below. To check purity and identity the bacteria that grow aerobically (Brevibacterium epidermidis, Corynebacterium xerosis, Staphylococcus epidermidis) were [lacuna] on Columbia blood agar (BioMérieux, Ref. 43049). The mould Aspergillus niger, the yeast Candida albicans and the two skin fungi Trichophyton mentagrophytes and Epidermophyton floccosum were cultured on Sabouraud agar (BioMérieux, Ref. 43555). Malassezia furfur was cultured on Sabourad HLT agar with disinhibitors (addition of 3% Tween80: 1%; lecithin: 0.3%; histidine: 0.1%; Merck, Ref. 1.18368). Propionibacterium acnes was cultured on Schaedler agar (BioMérieux, Ref. 43273). Further details on the test germs can be taken from Table 5. For preparation of the other test germ suspensions, the test strains were cultured on the abovementioned solid nutrient medium, harvested using sterile swabs and taken up or diluted in such an amount of Mueller-Hinton broth that the turbidity of the suspensions corresponded to McFarland standard 0.5. All test germ suspensions with the exception of Propionibacterium acnes were diluted again 1:10 with sterile broth and the germ count thereof was determined by the surface method using a Spiralometer (results: see Table 5). The MIC (minimum inhibitory concentration) was regarded as the lowest concentration of active compound at which macroscopically there is no growth. Minimal, barely visible growth or few small individual colonies were evaluated as inhibition.

[6] = system: Malassezia furfur DSM 6171; experiment: MIC, agar dilution method; conditions: DSM6171, Mueller-Hinton agar + 3% Tween 80, 72 h at 30° C.
Method: as §2

[7] = system: Trichophyton mentagrophytes CBS 26379; experiment: MIC, agar dilution method; conditions: CBS26379, Mueller-Hinton agar, 72 h at 30° C.
Method: as §2

| Compound | germ count C. albicans ([1]; 0′-count (initial germ count)) | germ count C. albicans ([1]; 24 h) | germ count C. albicans ([1]; 48 h) | germ count C. albicans ([1]; 4 d) | germ count C. albicans ([1]; 7 d) | germ count C. albicans ([1]; 14 d) | germ count C. albicans ([1]; 28 d) | germ count E. coli ([2]; 0′-count (initial germ count)) | germ count E. coli ([2]; 24 h) | germ count E. coli ([2]; 48 h) | germ count E. coli ([2]; 4 d) | germ count E. coli ([2]; 7 d) | germ count E. coli ([2]; 14 d) | germ count E. coli ([2]; 28 d) | germ count Ps. aeruginosa ([3]; 0′-count (initial germ count)) | germ count Ps. aeruginosa ([3]; 24 h) | germ count Ps. aeruginosa ([3]; 48 h) | germ count Ps. aeruginosa ([3]; 4 d) | germ count Ps. aeruginosa ([3]; 7 d) | germ count Ps. aeruginosa ([3]; 14 d) | other results |
| --- | --- | --- | --- | --- | --- | --- | --- | --- | --- | --- | --- | --- | --- | --- | --- | --- | --- | --- | --- | --- | --- |
| CCCCCCC(O)CO (stereo not drawn) [OC3, 1,2-octanediol] | 250,000 CFU/ml | 3,200 CFU/ml | <100 CFU/ml | 0 CFU/ml | 0 CFU/ml | 0 CFU/ml | 0 CFU/ml | 300,000 CFU/ml | 0 CFU/ml | 0 CFU/ml | 0 CFU/ml | 0 CFU/ml | 0 CFU/ml | 0 CFU/ml | 290,000 CFU/ml | 0 CFU/ml | 0 CFU/ml | 0 CFU/ml | 0 CFU/ml | 0 CFU/ml | germ count Ps. aeruginosa ([3]; 28 d): 0 CFU/ml; germ count Staph. aureus ([4]; 0′-count (initial germ count)): 240,000 CFU/ml; germ count Staph. aureus ([4]; 24 h): 0 CFU/ml; germ count Staph. aureus ([4]; 48 h): 0 CFU/ml; germ count Staph. aureus ([4]; 7 d): 0 CFU/ml; germ count Staph. aureus ([4]; 14 d): 0 CFU/ml; germ count Staph. aureus ([4]; 28 d): 0 CFU/ml; MIC [5]: 3120 µg/mL (≈ 21.4 mM); MIC [6]: 50 mg/mL; MIC [7]: 1560 µg/mL (≈ 10.7 mM) |
| CCCCC(O)CO (stereo not drawn) [HE3, 1,2-hexanediol] | 250,000 CFU/ml | 120,000 CFU/ml | 5,600 CFU/ml | 0 CFU/ml | 0 CFU/ml | 0 CFU/ml | 0 CFU/ml | 300,000 CFU/ml | <100 CFU/ml | <100 CFU/ml | 0 CFU/ml | 0 CFU/ml | 0 CFU/ml | 0 CFU/ml | 290,000 CFU/ml | <100 CFU/ml | <100 CFU/ml | 0 CFU/ml | 0 CFU/ml | 0 CFU/ml | germ count Ps. aeruginosa ([3]; 28 d): 0 CFU/ml; germ count Staph. aureus ([4]; 0′-count (initial germ count)): 240,000 CFU/ml; germ count Staph. aureus ([4]; 24 h): <100 CFU/ml; germ count Staph. aureus ([4]; 48 h): <100 CFU/ml; germ count Staph. aureus ([4]; 7 d): 0 CFU/ml; germ count Staph. aureus ([4]; 14 d): 0 CFU/ml; germ count Staph. aureus ([4]; 28 d): 0 CFU/ml; MIC [5]: 6250 µg/mL (≈ 52.9 mM); MIC [6]: 12.5 mg/mL; MIC [7]: 6300 µg/mL (≈ 53.3 mM) |
